Results as given in patent US7722893B2, “Use of substitute 2,4-bis (alkylamino) pyrimidines or quinzolines as antimicrobials” (Ciba Specialty Chemicals Corporation, priority 2003, dated 2010).
Values belong to the compound of their own block, whether it stands above or below them.

Columns and labels:
[1] = system: Aspergillus niger ATCC 6275; assay: MIC of a broadened organism spectrum (agar); format: cell-based; details: Sabouraud 4% glucose agar, 3 days at 28° C.; for MIC: ATCC6275, 72 h, read-out: minimum inhibiting concentration MIC
Excerpt: (§1) Determination of the Minimum Inhibiting Concentration MIC [ppm] of a Broadened Organism Spectrum
(§2) • Medium: Casein/soybean flour peptone agar (Merck) • *Sabouraud 4% glucose agar (Merck) • Dilution medium: sterile 0.85% NaCl solution • Test organisms: Staphylococcus aureus ATCC 6853 and 9144 • Staphylococcus epidermidis ATCC 12228 • C. xerosis ATCC 373 ** • C. minutissimum ATCC 23348 • Proplonibacterium acnes ATCC 6919 • Escherichia coli ATCC 10536 and NCTC 8196 • Proteus vulgaris ATCC 6896 • Klebsiella pneumoniae ATCC 4352 • Salmonella choleraesuis ATCC 9184 • Pseudomonas aeruginosa ATCC 15442 • *Candida albicans ATCC 10231 • *Aspergillus niger ATCC 6275 • Incubation: 24 hours at 37° C. • *3 days at 28° C. • Test solution: 1% stock solutions of all the test substances in a suitable solvent are prepared and diluted in serial dilutions (1:10, 1:100 and 1:1000 dilution), where possible diluted to such an extent that the end concentrations in agar are from 500 ppm to 10 ppm. Test principle:
(§3) 0.3 ml of the dilution stage in question is mixed with 15 ml of still-liquid nutrient medium.
(§4) When the nutrient substrate has solidified, 10 μl portions of a suitable organism dilution of the test strains in 0.85% NaCl solution are spotted onto the agar medium: […]

[2] = system: C. minutissimum ATCC 23348; assay: MIC of a broadened organism spectrum (agar); format: cell-based; details: 3 days incubation (Table 3a); for MIC: Corynebacterium minutissimum, ATCC23348, 72 h, read-out: minimum inhibiting concentration MIC
Excerpt: as §1, §2, §3, §4

C. xerosis ATCC 373 = assay: MIC of a broadened organism spectrum (agar); format: cell-based; details: 3 days incubation; for MIC: Corynebacterium xerosis, ATCC373, 72 h, read-out: minimum inhibiting concentration MIC
Excerpt: as §1, §2, §3, §4

[3] = system: Candida albicans ATCC 10231; assay: MIC of a broadened organism spectrum (agar); format: cell-based; details: Sabouraud 4% glucose agar, 3 days at 28° C.; for MIC: ATCC10231, 72 h, read-out: minimum inhibiting concentration MIC
Excerpt: as §1, §2, §3, §4

[4] = system: Escherichia coli ATCC 10536; assay: MIC of a broadened organism spectrum (agar); format: cell-based; details: for MIC: ATCC10536, 24 hours at 37° C., read-out: minimum inhibiting concentration MIC
Excerpt: as §1, §2, §3, §4

[5] = system: Escherichia coli NCTC 8196; assay: MIC of a broadened organism spectrum (agar); format: cell-based; details: for MIC: NCTC8196, 24 hours at 37° C., read-out: minimum inhibiting concentration MIC
Excerpt: as §1, §2, §3, §4

[6] = system: Klebsiella pneumoniae ATCC 4352; assay: MIC of a broadened organism spectrum (agar); format: cell-based; details: for MIC: ATCC4352, 24 hours at 37° C., read-out: minimum inhibiting concentration MIC
Excerpt: as §1, §2, §3, §4

[7] = system: Propionibacterium acnes ATCC 6919; assay: MIC of a broadened organism spectrum (agar); format: cell-based; details: 3 days incubation under anaerobic conditions; for MIC: Cutibacterium acnes, ATCC6919, 72 h, read-out: minimum inhibiting concentration MIC
Excerpt: as §1, §2, §3, §4

[8] = system: Proteus vulgaris ATCC 6896; assay: MIC of a broadened organism spectrum (agar); format: cell-based; details: for MIC: ATCC6896, 24 hours at 37° C., read-out: minimum inhibiting concentration MIC
Excerpt: as §1, §2, §3, §4

[9] = system: Pseudomonas aeruginosa ATCC 15442; assay: MIC of a broadened organism spectrum (agar); format: cell-based; details: for MIC: ATCC15442, 24 hours at 37° C., read-out: minimum inhibiting concentration MIC
Excerpt: as §1, §2, §3, §4

[10] = system: Salmonella choleraesuis ATCC 9184; assay: MIC of a broadened organism spectrum (agar); format: cell-based; details: 24 hours at 37° C.; for MIC: Salmonella enterica, read-out: minimum inhibiting concentration MIC
Excerpt: as §1, §2, §3, §4

[11] = system: Staphylococcus aureus ATCC 6538; assay: MIC of a broadened organism spectrum (agar); format: cell-based; details: for MIC: ATCC6538, 24 hours at 37° C., read-out: minimum inhibiting concentration MIC
Excerpt: as §1, §2, §3, §4

[12] = system: Staphylococcus aureus ATCC 9144; assay: MIC of a broadened organism spectrum (agar); format: cell-based; details: for MIC: ATCC9144, 24 hours at 37° C., read-out: minimum inhibiting concentration MIC
Excerpt: as §1, §2, §3, §4

[13] = system: Staphylococcus epidermidis ATCC 12228; assay: MIC of a broadened organism spectrum (agar); format: cell-based; details: for MIC: ATCC12228, 24 hours at 37° C., read-out: minimum inhibiting concentration MIC
Excerpt: as §1, §2, §3, §4

S. gordonii ATCC 10558 = assay: MIC of a broadened organism spectrum: oral organisms; format: cell-based, Streptococcus gordonil; details: for MIC: Streptococcus gordonii, ATCC10558, 24 hours aerobic with 10% CO2, read-out: minimum inhibiting concentration MIC, oral organisms
Excerpt: (§5) Determination of the Minimum Inhibiting Concentration MIC (ppm) of a Broadened Organism Spectrum: Oral Organisms
(§6) • Medium: thioglycolate bouillon with hemin and menadione Columbia bouillon with hemin and menadione for P. gingivalis and P. nigrescens • Dilution medium: the appropriate amount of the substances was pipetted directly into the medium. • Test organisms: Actinobacillus actinomycetemcomitans ATCC 43718 • Streptococcus gordonil ATCC 10558 • Streptococcus mutans ATCC 33402 • Actinomyces viscosus ATCC 43146 • Fusobacterium nucleatum subsp. polymorphum ATCC 10953 • Porphyromonas gingivalis ATCC 33277 • Prevotella nigrescens ATCC 33563 • Incubation: 7-10 days at 37° C anaerobic, or 24 hours aerobic with 10% CO2 for Streptococci and A. actinomycetemcomitans • Test solution: Stock solutions of all the test substances in ethanol at 1500 ppm (w/w) are used. Test Principle:
(§7) Bacteria are removed from blood agar plates using cotton wool buds and a suitable optical density (McFarland 0.5) is adjusted in an appropriate medium; that solution is used undiluted for F. nucleatum and P. nigrescens, and in a dilution of 1:20 for the other strains. 0.1 ml of bacterial culture is added per 2 ml of active ingredient solution and incubation is carried out as described above.

[14] = system: Actinobacillus actinomycetemcomitans ATCC 43718; assay: as above; format: cell-based; details: A. actinomycetemcomitans ATCC 43718, 24 hours aerobic with 10% CO2; for MIC: Aggregatibacter actinomycetemcomitans, ATCC43718, read-out: minimum inhibiting concentration MIC, oral organisms
Excerpt: as §5, §6, §7

[15] = system: Actinomyces viscosus ATCC 43146; assay: as above; format: cell-based; details: A. viscosus ATCC 43146, 7-10 days at 37° C anaerobic; for MIC: Actinomyces viscosus, ATCC43146, read-out: minimum inhibiting concentration MIC, oral organisms
Excerpt: as §5, §6, §7

[16] = system: Fusobacterium nucleatum subsp. polymorphum ATCC 10953; assay: as above; format: cell-based; details: F. nucleatum subsp. polymorphum ATCC 10953, 7-10 days at 37° C anaerobic; for MIC: Fusobacterium nucleatum, ATCC10953, read-out: minimum inhibiting concentration MIC, oral organisms
Excerpt: as §5, §6, §7

[17] = system: Prevotella nigrescens ATCC 33563; assay: as above; format: cell-based; details: P. nigrescens ATCC 33563, Columbia bouillon, 7-10 days at 37° C anaerobic; for MIC: Prevotella nigrescens, ATCC33563, read-out: minimum inhibiting concentration MIC, oral organisms
Excerpt: as §5, §6, §7

[18] = system: Streptococcus mutans ATCC 33402; assay: as above; format: cell-based; details: S. mutans ATCC 33402, 24 hours aerobic with 10% CO2; for MIC: Streptococcus mutans, ATCC33402, read-out: minimum inhibiting concentration MIC, oral organisms
Excerpt: as §5, §6, §7

P. gingivalis ATCC 3277 = assay: as above; format: cell-based, Porphyromonas gingivalis; details: 7-10 days at 37° C anaerobic; for MIC: Porphyromonas gingivalis, ATCC3277, Columbia bouillon, read-out: minimum inhibiting concentration MIC, oral organisms
Excerpt: as §5, §6, §7

SMILES: CCCCCCCCNc1nc(C)c(CCCCCC)c(NCCOCCOCCN)n1 [PY55]
- MIC [1]: 500 µg/mL
- MIC [2]: 3.9 µg/mL
- MIC (C. xerosis ATCC 373): 3.9 µg/mL
- MIC [3]: 125 µg/mL
- MIC [4]: 7.8 µg/mL
- MIC [5]: 7.8 µg/mL
- MIC [6]: 15.6 µg/mL
- MIC [7]: 3.9 µg/mL
- MIC [8]: > 500 µg/mL
- MIC [9]: > 500 µg/mL
- MIC [10]: 7.8 µg/mL
- MIC [11]: 7.8 µg/mL
- MIC [12]: 3.9 µg/mL
- MIC [13]: 7.8 µg/mL
- MIC (S. gordonii ATCC 10558): 3.8 µg/mL
- MIC [14]: 15 µg/mL
- MIC [15]: 3.8 µg/mL
- MIC [16]: 7.5 µg/mL
- MIC [17]: 3.8 µg/mL
- MIC [18]: 7.5 µg/mL
- MIC (P. gingivalis ATCC 3277): 3.8 µg/mL

SMILES: CCCCCCCCNc1cc(C)nc(NCCCCCCCC)n1 [PY5, N,N′-bis(2,4-dioctylamino)-6-methylpyrimidine]
- minimum inhibiting concentration MIC [1]: >1000 ppm
- minimum inhibiting concentration MIC [2]: 3.91 ppm
- minimum inhibiting concentration MIC (C. xerosis ATCC 373): 7.81 ppm
- minimum inhibiting concentration MIC [3]: >1000 ppm
- minimum inhibiting concentration MIC ([4]; 24 hours at 37° C.): >1000 ppm
- minimum inhibiting concentration MIC ([5]; 24 hours at 37° C.): >1000 ppm
- minimum inhibiting concentration MIC ([6]; 24 hours at 37° C.): 250 ppm
- minimum inhibiting concentration MIC [7]: 3.91 ppm
- minimum inhibiting concentration MIC ([8]; 24 hours at 37° C.): >1000 ppm
- minimum inhibiting concentration MIC ([9]; 24 hours at 37° C.): >1000 ppm
- minimum inhibiting concentration MIC [10]: >1000 ppm
- minimum inhibiting concentration MIC ([11]; 24 hours at 37° C.): 3.91 ppm
- minimum inhibiting concentration MIC ([12]; 24 hours at 37° C.): 3.91 ppm
- minimum inhibiting concentration MIC ([13]; 24 hours at 37° C.): 3.91 ppm
- minimum inhibiting concentration MIC, oral organisms (S. gordonii ATCC 10558; 24 hours aerobic with 10% CO2): 15 ppm
- minimum inhibiting concentration MIC, oral organisms [14]: >15 ppm
- minimum inhibiting concentration MIC, oral organisms [15]: 3.75 ppm
- minimum inhibiting concentration MIC, oral organisms [16]: >15 ppm
- minimum inhibiting concentration MIC, oral organisms [17]: 15 ppm
- minimum inhibiting concentration MIC, oral organisms [18]: 3.75 ppm
- minimum inhibiting concentration MIC, oral organisms (P. gingivalis ATCC 3277; Columbia bouillon): 7.5 ppm

Further compounds by falling MIC [1], results first:

- MIC [1]: 500 µg/mL
- MIC [2]: 3.9 µg/mL
- MIC (C. xerosis ATCC 373): 3.9 µg/mL
- MIC [3]: 250 µg/mL
- MIC [4]: 62.5 µg/mL
- MIC [5]: 15.6 µg/mL
- MIC [6]: 7.8 µg/mL
- MIC [7]: 3.9 µg/mL
- MIC [8]: > 500 µg/mL
- MIC [9]: > 500 µg/mL
- MIC [11]: 7.8 µg/mL
- MIC [12]: 7.8 µg/mL
- MIC [13]: 3.9 µg/mL
- MIC (S. gordonii ATCC 10558): 7.5 µg/mL
- MIC [14]: > 15 µg/mL
- MIC [15]: 3.8 µg/mL
- MIC [16]: 3.8 µg/mL
- MIC [17]: 3.8 µg/mL
- MIC [18]: 7.5 µg/mL
- MIC (P. gingivalis ATCC 3277): 3.8 µg/mL
SMILES: CCCCCCCCNc1nc(C)cc(N2CCCC2)n1 [PY44]
- MIC [10]: 62.5 µg/mL

- MIC [1]: 250 µg/mL
- MIC [2]: 3.9 µg/mL
- MIC (C. xerosis ATCC 373): 1.95 µg/mL
- MIC [3]: 62.5 µg/mL
- MIC [4]: 250 µg/mL
- MIC [5]: 15.6 µg/mL
- MIC [6]: 7.8 µg/mL
- MIC [7]: 7.8 µg/mL
- MIC [8]: > 500 µg/mL
- MIC [9]: > 500 µg/mL
- MIC [11]: 7.8 µg/mL
- MIC [12]: 7.8 µg/mL
- MIC [13]: 7.8 µg/mL
- MIC (S. gordonii ATCC 10558): 15 µg/mL
- MIC [14]: > 15 µg/mL
- MIC [15]: 3.75 µg/mL
- MIC [16]: 15 µg/mL
- MIC [17]: 7.5 µg/mL
- MIC [18]: 15 µg/mL
- MIC (P. gingivalis ATCC 3277): 7.5 µg/mL
SMILES: Cc1cc(NCCc2ccccc2)nc(NCCc2ccccc2)n1 [PY9, N,N′-Bis(2,4-diphenylethylamino)-6-methylpyrimidine]
- MIC [10]: 250 µg/mL

- MIC [1]: 250 µg/mL
- MIC [2]: 15.6 µg/mL
- MIC (C. xerosis ATCC 373): 7.8 µg/mL
- MIC [3]: 250 µg/mL
- MIC [4]: 62.5 µg/mL
- MIC [5]: 31.2 µg/mL
- MIC [6]: 15.6 µg/mL
- MIC [7]: 31.2 µg/mL
- MIC [8]: > 500 µg/mL
- MIC [9]: > 500 µg/mL
- MIC [11]: 31.2 µg/mL
- MIC [12]: 31.2 µg/mL
- MIC [13]: 31.2 µg/mL
- MIC (S. gordonii ATCC 10558): > 15 µg/mL
- MIC [14]: > 15 µg/mL
- MIC [15]: 3.75 µg/mL
- MIC [16]: 15 µg/mL
- MIC [17]: 15 µg/mL
- MIC [18]: > 15 µg/mL
- MIC (P. gingivalis ATCC 3277): 15 µg/mL
SMILES: Cc1cc(NCc2ccccc2)nc(NCc2ccccc2)n1 [PY8, N,N′-Bis(2,4-dibenzylamino)-6-methylpyrimidine]
- MIC [10]: 62.5 µg/mL
